The record followed here is ChEMBL document CHEMBL1201862, “PubChem BioAssay data set” (2004).

Some test systems named below: 786-0; EKVX; HCT-116; HL-60; IGROV-1; LOX IMVI; Malme-3M; NCI-H23; NCI/ADR-RES; RPMI-8226; RXF 393; SF-268; SK-MEL-28; SK-MEL-5; SN12C; SNB-19; SNB-75; UACC-62; SF-539.
What all share (assay): NCI anticancer screen, dose series, 48 h

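Each compound was tested at five concentrations against cells in 96-well plates for 48 hours. GI50 marks 50% less growth.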 Activity calls are given as the source filed them. Rule as the data show it: active = GI50 up to about 1.1 µM and inactive = higher.

For `Cc1ccc(S(=O)ON2CCC(C(=O)O)(c3ccccc3)CC2)cc1` (stereo not drawn), the GI50 in the experiment with 786-0 is 0.0773 µM (active); in the experiment with EKVX it was 33.3 µM (inactive); in the experiment with HCT-116 it was > 100 µM (inactive); in the experiment on HL-60, > 100 µM (inactive); in the experiment on IGROV-1, > 100 µM (inactive); in the experiment on LOX IMVI, > 100 µM (inactive). Besides, the GI50 in the experiment with Malme-3M, in the experiment on NCI-H23, in the experiment on NCI/ADR-RES, with RPMI-8226, with RXF 393 and with SF-268 was > 100 µM (inactive) throughout. Further, the GI50 in the experiment on SK-MEL-28, with SK-MEL-5, with SN12C, with SNB-19, in the experiment with SNB-75 and in the experiment with UACC-62 was > 100 µM (inactive) throughout.
Regarding `CC(=O)c1ccc2c3c1[C@@H]1O[C@@H]1c1cccc(c1-3)[C@@H]1O[C@H]21`, the GI50 in the experiment on 786-0 is 5.6 µM (inactive); with EKVX, 16.4 µM (inactive); in the experiment on HCT-116, 4.54 µM (inactive); in the experiment with HL-60 it was 9.91 µM (inactive); with IGROV-1, 0.782 µM (active); in the experiment on LOX IMVI, 2.07 µM (inactive). Further, the GI50 with Malme-3M was 7.4 µM (inactive); in the experiment on NCI-H23, 7 µM (inactive); in the experiment on NCI/ADR-RES it was 13.7 µM (inactive); with RPMI-8226 it was 5.05 µM (inactive); with RXF 393, 11.5 µM (inactive); in the experiment on SF-268 it was 6.62 µM (inactive). Further, the GI50 was 3.5 µM (inactive) with SK-MEL-28; 11.7 µM (inactive) with SK-MEL-5; 8.26 µM (inactive) with SN12C; 20.3 µM (inactive) in the experiment with SNB-19; 13.5 µM (inactive) in the experiment on SNB-75; 14 µM (inactive) in the experiment with UACC-62.
Regarding `C=C(C)[C@@H]1CC[C@@H](C)[C@](O)([C@@H]2C[C@@H]([C@H](COC(=O)c3ccccc3)OC(=O)c3ccccc3)OC2=O)C1`, the GI50 with 786-0, with EKVX, with HCT-116, with IGROV-1, in the experiment on LOX IMVI and in the experiment with Malme-3M was > 100 µM (inactive) each time. The GI50 with NCI-H23 is > 100 µM (inactive); in the experiment on NCI/ADR-RES, > 100 µM (inactive); with RPMI-8226 it was 54 µM (inactive); in the experiment with RXF 393 it was > 100 µM (inactive); in the experiment on SF-268, > 100 µM (inactive); with SF-539, > 100 µM (inactive). The GI50 in the experiment with SK-MEL-28, with SK-MEL-5, in the experiment with SN12C, with SNB-19, in the experiment with SNB-75 and in the experiment on UACC-62 was > 100 µM (inactive) each time.
Take `Oc1ccc(/C=C/c2cccc(/C=C/c3ccc(O)c(O)c3)n2)cc1O`: the GI50 in the experiment on 786-0 was 10.7 µM (inactive); with EKVX, 11.7 µM (inactive); in the experiment with HCT-116 it was 5.98 µM (inactive); in the experiment with HL-60, 2.82 µM (inactive); in the experiment with IGROV-1, 6.15 µM (inactive); in the experiment with LOX IMVI it was 5.14 µM (inactive). The GI50 in the experiment with NCI/ADR-RES is 5.48 µM (inactive); with RPMI-8226, 3.76 µM (inactive); with SF-268 it was 10.7 µM (inactive); in the experiment with SF-539, 3.02 µM (inactive); in the experiment on SK-MEL-28, 14.2 µM (inactive); in the experiment on SK-MEL-5 it was 4.72 µM (inactive). The GI50 was 8.87 µM (inactive) with SN12C, 6.04 µM (inactive) with SNB-19, 6.01 µM (inactive) in the experiment with SNB-75 and 6.12 µM (inactive) in the experiment on UACC-62.
As for `S=c1sc2c(s1)SCCCCSCCCCSc1sc(=S)sc1SCCCCSCCCCS2`, the GI50 was 68.5 µM (inactive) in the experiment with 786-0; > 100 µM (inactive) with EKVX; > 100 µM (inactive) in the experiment with HCT-116; > 100 µM (inactive) in the experiment on HL-60; > 100 µM (inactive) in the experiment on IGROV-1; > 100 µM (inactive) in the experiment on LOX IMVI. The GI50 in the experiment with Malme-3M was > 100 µM (inactive); in the experiment on NCI-H23, > 100 µM (inactive); in the experiment on NCI/ADR-RES it was > 100 µM (inactive); in the experiment with RPMI-8226 it was > 100 µM (inactive); in the experiment on SF-268 it was 93.1 µM (inactive); in the experiment on SF-539, > 100 µM (inactive). Moreover, the GI50 in the experiment with SK-MEL-28 is > 100 µM (inactive); in the experiment with SK-MEL-5, > 100 µM (inactive); in the experiment on SN12C, > 100 µM (inactive); in the experiment on SNB-19, > 100 µM (inactive); in the experiment on SNB-75, 18.6 µM (inactive); in the experiment on UACC-62 it was > 100 µM (inactive).
As for `CCCCCCCCCCCCOc1ccc(/C=C/C2=[N+](CCCl)CCO2)cc1`, the GI50 is 19.2 µM (inactive) with 786-0; 97.1 µM (inactive) in the experiment on EKVX; 15.8 µM (inactive) in the experiment on HCT-116; 12.8 µM (inactive) in the experiment on HL-60; 25.4 µM (inactive) with IGROV-1; 17.7 µM (inactive) in the experiment with LOX IMVI. Also, the GI50 in the experiment on Malme-3M was > 100 µM (inactive); in the experiment on NCI/ADR-RES, 46.1 µM (inactive); in the experiment with RPMI-8226 it was 20.1 µM (inactive); in the experiment with SF-539 it was > 100 µM (inactive); in the experiment on SK-MEL-28, > 100 µM (inactive); with SK-MEL-5 it was 67 µM (inactive). For the same compound, the GI50 with SN12C was 77.4 µM (inactive); with SNB-19, > 100 µM (inactive); with SNB-75, 45.5 µM (inactive); in the experiment with UACC-62, 93.3 µM (inactive).
On to `CC(C)(C)OC(=O)N1C(=O)C2CCCC21` (stereo not drawn), for which the GI50 with 786-0, in the experiment on HCT-116, in the experiment on HL-60, in the experiment on IGROV-1, in the experiment with LOX IMVI and with NCI-H23 was > 100 µM (inactive) throughout. The GI50 with NCI/ADR-RES, in the experiment on RPMI-8226, in the experiment with RXF 393, with SF-268, in the experiment on SK-MEL-28 and in the experiment with SK-MEL-5 was > 100 µM (inactive) in each case. For the same compound, the GI50 with SN12C, in the experiment with SNB-19, in the experiment on SNB-75 and with UACC-62 was > 100 µM (inactive) each time.
As to `CC1CN=C(N(Cc2ccc(F)cc2)C(=O)Nc2ccc(Cl)cc2)S1` (stereo not drawn), the GI50 in the experiment on 786-0 was 20.5 µM (inactive); in the experiment with EKVX it was 16.2 µM (inactive); in the experiment on HCT-116 it was 22.3 µM (inactive); in the experiment on HL-60 it was 17.5 µM (inactive); with IGROV-1, 18.9 µM (inactive); with LOX IMVI, 16.1 µM (inactive). For the same compound, the GI50 with Malme-3M is 34.8 µM (inactive); with NCI-H23, 26.9 µM (inactive); in the experiment with NCI/ADR-RES it was 12.5 µM (inactive); with RPMI-8226 it was 43.4 µM (inactive); in the experiment with SF-268, 21.4 µM (inactive); with SF-539, 30.5 µM (inactive). For the same compound, the GI50 was 16.3 µM (inactive) in the experiment with SK-MEL-28; 13.7 µM (inactive) in the experiment on SK-MEL-5; 28.2 µM (inactive) in the experiment on SN12C; 95.1 µM (inactive) in the experiment on SNB-19; 18.2 µM (inactive) with SNB-75.
Take `COc1ccc(Cc2nc3cc([N+](=O)[O-])ccc3n2C[C@@H]2CCCN3CCCCC23)cc1` (stereo partly drawn): the GI50 is 18.6 µM (inactive) in the experiment with 786-0; 31 µM (inactive) in the experiment on EKVX; 14.7 µM (inactive) in the experiment on HCT-116; 4.01 µM (inactive) with HL-60; 17.7 µM (inactive) with IGROV-1; 16.7 µM (inactive) with LOX IMVI. Also, the GI50 with Malme-3M was 16.7 µM (inactive); in the experiment with NCI-H23, 29.8 µM (inactive); in the experiment with NCI/ADR-RES, 25.2 µM (inactive); in the experiment with RXF 393, 15.4 µM (inactive); in the experiment on SK-MEL-28, 17.7 µM (inactive); in the experiment with SK-MEL-5, 14.8 µM (inactive). Moreover, the GI50 with SNB-19 is 19.8 µM (inactive); in the experiment on SNB-75 it was 40.7 µM (inactive); in the experiment on UACC-62, 17.3 µM (inactive).
Consider `Cc1ccc2nc(CN3CCCCC3)cc(=O)n2c1`, for which the GI50 with 786-0, in the experiment on EKVX, in the experiment on HCT-116, in the experiment with HL-60, in the experiment on IGROV-1 and in the experiment with LOX IMVI was > 100 µM (inactive) each time. Moreover, the GI50 in the experiment on Malme-3M, in the experiment with NCI-H23, with NCI/ADR-RES, with RPMI-8226, in the experiment on SF-268 and with SF-539 was > 100 µM (inactive) in each case. For the same compound, the GI50 with SK-MEL-28, in the experiment with SN12C, in the experiment with SNB-19, in the experiment with SNB-75 and in the experiment with UACC-62 was > 100 µM (inactive) throughout.
As for `CCC1(C)C=Cc2c(cc(O)c3c(=O)c4ccccc4n(C)c23)O1` (stereo not drawn), the GI50 in the experiment on 786-0, in the experiment on EKVX, in the experiment with HCT-116, in the experiment with IGROV-1, with LOX IMVI and in the experiment with Malme-3M was > 10 µM (inactive) in each case. Further, the GI50 in the experiment on NCI-H23, in the experiment on NCI/ADR-RES, in the experiment on RPMI-8226, in the experiment with RXF 393, with SF-268 and in the experiment on SF-539 was > 10 µM (inactive) throughout. In addition, the GI50 with SK-MEL-28, with SK-MEL-5, in the experiment with SN12C, in the experiment with SNB-19, in the experiment on SNB-75 and in the experiment on UACC-62 was > 10 µM (inactive) in each case.
For `O=P(Oc1ccc(Cl)cc1)(Oc1ccc(Cl)cc1)N1CC1`, the GI50 in the experiment with 786-0, in the experiment on EKVX, with HL-60, in the experiment on LOX IMVI, in the experiment with Malme-3M and in the experiment with NCI-H23 was > 10 µM (inactive) in each case. Moreover, the GI50 in the experiment with NCI/ADR-RES, in the experiment with RPMI-8226, with SF-268, in the experiment with SF-539, with SK-MEL-28 and in the experiment on SK-MEL-5 was > 10 µM (inactive) each time. Moreover, the GI50 in the experiment on SN12C, in the experiment with SNB-19, with SNB-75 and in the experiment on UACC-62 was > 10 µM (inactive) throughout.
